The source of these data is article PMC4672112, “Purification, Characterization of L-Methioninase from Candida tropicalis, and Its Application as an Anticancer” (Biotechnology Research International, 2015).

As a reminder, the Km is the concentration of substrate that gives half-maximal velocity.

In the assay the test system is T1, L-methioninase.
T1 construct: native, intracellular, purified from C. tropicalis cells (heat treatment, DEAE-cellulose, Sephadex); 46 kDa by SDS-PAGE; PLP enzyme
Description: DTNB methanethiol assay, […] nm; Lineweaver-Burk plot. It counts as biochemical, Candida tropicalis. As to conditions: optimum assay conditions (pH 6.5, 45 C, 10 min), PLP; substrate range printed as 1 to 40 uM, which conflicts with the unit of Km; read-out: apparent Km.

Turning to `CSCC[C@H](N)C(=O)O` [L-methionine], the Km was determined as 500 µM.
